{"source": "PubChem BioAssay AID328", "about": "(DTP/NCI, 2004)", "test_system": "BDF1 mice, P388 leukemia ip, median survival T/C", "test": "NCI In Vivo Anticancer Drug Screen. Data for tumor model P388 Leukemia (intraperitoneal) in B6D2F1 (BDF1) mice", "details": "endpoint: median survival time, higher = longer survival", "how_it_was_run": "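In tumour-bearing mice, survival after compound treatment is set against the vehicle group and given as a quotient.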", "note": "Values joined by “and” are separate entries in the source; they are usually repeats but may differ in a detail not shown here. Equal values may be shown once. Toxic doses and inconclusive results are not listed.", "data": [{"compound": "O=C(O)c1c2c(nc3ccccc13)Cc1ccccc1-2", "values": [{"measurement": "T/C", "setting": "dose: 12.5 mg/kg/injection, schedule: Q01DX009 (ip), vehicle: water", "result": "96 % of control and 97 % of control"}, {"measurement": "T/C", "setting": "dose: 25.0 mg/kg/injection, schedule: Q01DX009 (ip), vehicle: saline", "result": "111 % of control"}, {"measurement": "T/C", "setting": "dose: 25.0 mg/kg/injection, schedule: Q01DX009 (ip), vehicle: water", "result": "88 % of control and 114 % of control"}, {"measurement": "T/C", "setting": "dose: 50.0 mg/kg/injection, schedule: Q01DX009 (ip), vehicle: saline", "result": "110 % of control"}, {"measurement": "T/C", "setting": "dose: 50.0 mg/kg/injection, schedule: Q01DX009 (ip), vehicle: water", "result": "119 % of control"}, {"measurement": "T/C", "setting": "dose: 90.0 mg/kg/injection, schedule: Q01DX009 (ip), vehicle: Klucel (hydroxypropylcellulose) (HPC)", "result": "163 % of control"}, {"measurement": "T/C", "setting": "dose: 100.0 mg/kg/injection, schedule: Q01DX009 (ip), vehicle: water", "result": "173 % of control and 176 % of control"}, {"measurement": "T/C", "setting": "dose: 133.0 mg/kg/injection, schedule: Q01DX009 (ip), vehicle: Klucel (hydroxypropylcellulose) (HPC)", "result": "186 % of control"}, {"measurement": "T/C", "setting": "dose: 200.0 mg/kg/injection, schedule: Q01DX009 (ip), vehicle: Klucel (hydroxypropylcellulose) (HPC)", "result": "163 % of control"}, {"measurement": "T/C", "setting": "dose: 200.0 mg/kg/injection, schedule: Q01DX009 (ip), vehicle: water", "result": "187 % of control"}]}, {"compound": "OCC1OC(c2ccc(OCc3ccccc3)cc2OCc2ccccc2)C(O)C1O", "note": "(stereo unspecified)", "values": [{"measurement": "T/C", "setting": "dose: 50.0 mg/kg/injection, schedule: Q01DX009 (ip), vehicle: saline with Tween-80", "result": "105 % of control"}, {"measurement": "T/C", "setting": "dose: 100.0 mg/kg/injection, schedule: Q01DX009 (ip), vehicle: saline with Tween-80", "result": "92 % of control"}, {"measurement": "T/C", "setting": "dose: 200.0 mg/kg/injection, schedule: Q01DX009 (ip), vehicle: saline with Tween-80", "result": "92 % of control"}]}, {"compound": "COc1cc2c(=O)n(C)c3c4cc5c(cc4ccc3c2cc1OC)OCO5", "values": [{"measurement": "T/C", "setting": "dose: 1.0 mg/kg/injection, schedule: Q01DX010 (ip), vehicle: steriod suspending solution", "result": "103 % of control"}, {"measurement": "T/C", "setting": "dose: 3.0 mg/kg/injection, schedule: Q01DX010 (ip), vehicle: steriod suspending solution", "result": "117 % of control"}, {"measurement": "T/C", "setting": "dose: 6.0 mg/kg/injection, schedule: Q01DX010 (ip), vehicle: steriod suspending solution", "result": "110 % of control"}]}, {"compound": "COc1cc2c(cc1NC(=O)N(CCCl)N=O)-c1ccccc1C2", "values": [{"measurement": "T/C", "setting": "dose: 8.3 mg/kg/injection, schedule: Q04DX003 (ip), vehicle: Klucel (hydroxypropylcellulose) (HPC)", "result": "108 % of control"}, {"measurement": "T/C", "setting": "dose: 12.0 mg/kg/injection, schedule: Q04DX003 (ip), vehicle: Klucel (hydroxypropylcellulose) (HPC)", "result": "113 % of control"}, {"measurement": "T/C", "setting": "dose: 19.0 mg/kg/injection, schedule: Q04DX003 (ip), vehicle: Klucel (hydroxypropylcellulose) (HPC)", "result": "154 % of control"}, {"measurement": "T/C", "setting": "dose: 29.0 mg/kg/injection, schedule: Q04DX003 (ip), vehicle: Klucel (hydroxypropylcellulose) (HPC)", "result": "154 % of control"}, {"measurement": "T/C", "setting": "dose: 45.0 mg/kg/injection, schedule: Q04DX003 (ip), vehicle: Klucel (hydroxypropylcellulose) (HPC)", "result": "172 % of control"}, {"measurement": "T/C", "setting": "dose: 65.0 mg/kg/injection, schedule: Q04DX003 (ip), vehicle: Klucel (hydroxypropylcellulose) (HPC)", "result": "190 % of control"}, {"measurement": "T/C", "setting": "dose: 100.0 mg/kg/injection, schedule: Q04DX003 (ip), vehicle: Klucel (hydroxypropylcellulose) (HPC)", "result": "168 % of control"}, {"measurement": "T/C", "setting": "dose: 200.0 mg/kg/injection, schedule: Q04DX003 (ip), vehicle: Klucel (hydroxypropylcellulose) (HPC)", "result": "172 % of control"}, {"measurement": "T/C", "setting": "dose: 400.0 mg/kg/injection, schedule: Q04DX003 (ip), vehicle: Klucel (hydroxypropylcellulose) (HPC)", "result": "209 % of control"}]}, {"compound": "c1cc(CC2CO2)c2c(c1CC1CO1)OCCOCCOCCOCCO2", "note": "(stereo unspecified)", "values": [{"measurement": "T/C", "setting": "dose: 15.0 mg/kg/injection, schedule: Q01DX009 (ip), vehicle: saline + alcohol", "result": "100 % of control"}, {"measurement": "T/C", "setting": "dose: 30.0 mg/kg/injection, schedule: Q01DX009 (ip), vehicle: saline + alcohol", "result": "106 % of control"}, {"measurement": "T/C", "setting": "dose: 60.0 mg/kg/injection, schedule: Q01DX009 (ip), vehicle: saline + alcohol", "result": "109 % of control"}, {"measurement": "T/C", "setting": "dose: 120.0 mg/kg/injection, schedule: Q01DX009 (ip), vehicle: saline + alcohol", "result": "111 % of control"}]}, {"compound": "CSC(=S)NNC(=O)C1CCCCC1", "values": [{"measurement": "T/C", "setting": "dose: 25.0 mg/kg/injection, schedule: Q01DX001 (ip), vehicle: saline sonified", "result": "100 % of control"}, {"measurement": "T/C", "setting": "dose: 50.0 mg/kg/injection, schedule: Q01DX001 (ip), vehicle: saline sonified", "result": "104 % of control"}, {"measurement": "T/C", "setting": "dose: 100.0 mg/kg/injection, schedule: Q01DX001 (ip), vehicle: saline sonified", "result": "100 % of control"}]}, {"compound": "N=c1ccn(C(=O)C2=Cc3ccccc3OC2)cc1", "values": [{"measurement": "T/C", "setting": "dose: 1.25 mg/kg/injection, schedule: Q01DX009 (ip), vehicle: saline with Tween-80", "result": "88 % of control and 112 % of control"}, {"measurement": "T/C", "setting": "dose: 2.5 mg/kg/injection, schedule: Q01DX009 (ip), vehicle: saline with Tween-80", "result": "96 % of control and 100 % of control"}, {"measurement": "T/C", "setting": "dose: 5.0 mg/kg/injection, schedule: Q01DX009 (ip), vehicle: saline with Tween-80", "result": "92 % of control and 100 % of control and 112 % of control"}, {"measurement": "T/C", "setting": "dose: 5.0 mg/kg/injection, schedule: Q04DX003 (ip), vehicle: saline with Tween-80", "result": "118 % of control"}, {"measurement": "T/C", "setting": "dose: 10.0 mg/kg/injection, schedule: Q04DX003 (ip), vehicle: saline with Tween-80", "result": "95 % of control"}, {"measurement": "T/C", "setting": "dose: 20.0 mg/kg/injection, schedule: Q04DX003 (ip), vehicle: saline with Tween-80", "result": "90 % of control"}]}, {"compound": "COc1ccc(NC(C)=O)c(/C=N/Nc2ccc([N+](=O)[O-])cc2[N+](=O)[O-])c1", "values": [{"measurement": "T/C", "setting": "dose: 50.0 mg/kg/injection, schedule: Q04DX002 (ip), vehicle: saline with Tween-80", "result": "89 % of control"}, {"measurement": "T/C", "setting": "dose: 100.0 mg/kg/injection, schedule: Q04DX002 (ip), vehicle: saline with Tween-80", "result": "106 % of control"}, {"measurement": "T/C", "setting": "dose: 200.0 mg/kg/injection, schedule: Q04DX002 (ip), vehicle: saline with Tween-80", "result": "106 % of control"}]}]}
